Reference: patent publication US12384776B2, “Compounds and uses thereof” (Foghorn Therapeutics Inc., priority 2019, dated 2025)

Columns and labels:
SYO1 cells [1] = test: Apoptosis assay (Annexin V-FITC Apoptosis Detection Kit); format: cell-based; settings: 200 nM or 1 μM, 8 days, as compared to DMSO controls
Protocol: (§1) Procedure: SYO1 cells were treated for 8 or 13 days with DMSO, a BRD9 degrader (Compound 1) at 200 nM or 1 μM, or an E3 ligase binder (lenalidomide) at 200 nM. Compounds were refreshed every 5 days. Cell cycle analysis was performed using the Click-iT™ Plus EdU Flow Cytometry Assay (Invitrogen). The apoptosis assay was performed using the Annexin V-FITC Apoptosis Detection Kit (Sigma A9210). Assays were performed according to the manufacturer's protocol.

[2] = system: non-synovial control cancer cell lines (293T, A549, G401); test: Growth of non-synovial control cancer cell lines, Example 3; format: cell-based
Protocol: (§2) Cells were treated with DMSO or the BRD9 degrader, Compound 1, at indicated concentrations, and proliferation was monitored from day 7 to day 14 by measuring confluency over time using an IncuCyte live cell analysis system (FIG. 5). Growth medium and compounds were refreshed every 3-4 days.
(§3) Cells were seeded into 12-well plates and treated with DMSO, 1 μM BRD9 inhibitor, Compound 2 (also known as BI-7273, see Martin et al, J Med Chem. 59(10):4462-4475 (2016); see structure of compound 2 below), or 1 μM BRD9 degrader, Compound 1.
(§4) The number of cells was optimized for each cell line. Growth medium and compounds were refreshed every 3-5 days. SYO1, Yamato, A549, 293T and HS-SY-II cells were fixed and stained at day 11. ASKA cells were fixed and stained at day 23. Staining was done by incubation with crystal violet solution (0.5 g Crystal Violet, 27 ml 37% Formaldehyde, 100 mL 10×PBS, 10 mL Methanol, 863 dH20 to 1 L) for 30 min followed by 3× washes with water and drying the plates for at least 24 h at room temperature. Subsequently plates were scanned on an Odyssey CLx Imaging system (FIG. 6).
(§5) Cells were seeded into 96-well ultra low cluster plate (Costar, #7007) in 200 μL complete media and treated at day 2 with DMSO, Staurosporin, or BRD9 degarder, Compound 1, at indicated doses (FIG. 3C). Media and compounds were changed every 5 d and cell colonies were imaged at day 14.

SYO1 cells [3] = test: Cell cycle analysis (Click-iT Plus EdU Flow Cytometry Assay); format: cell-based; settings: 200 nM or 1 μM, 8 or 13 days, as compared to DMSO and lenalidomide
Protocol: as §1

[4] = system: synovial sarcoma cell lines (SYO1, HS-SY-II, and ASKA); test: Crystal violet growth assay in synovial sarcoma cell lines, Example 4; format: cell-based; settings: for inhibition of the growth of the cells: synovial sarcoma cell lines SYO1, HS-SY-II, ASKA, day 14
Protocol: (§6) Procedure: Cells were seeded into 6-well or 12-well plates and were treated daily with a BRD9 degrader (Compound 1), a bromo-domain BRD9 binder (Compound 2), E3 ligase binder (lenalidomide), DMSO, or staurosporin (positive control for cell killing), at indicated concentrations. The number of cells was optimized for each cell line. Growth media was refreshed every 5 days. By day 14, medium was removed, cells were washed with PBS, and stained using 500 μL of 0.005% (w/v) crystal violet solution in 25% (v/v) methanol for at least 1 hour at room temperature. Subsequently plates were scanned on an Odyssey CLx Imaging system.

[5] = system: non-synovial control cancer cell lines (RD, HCT116, and Calu6); test: Crystal violet growth assay in non-synovial control cancer cell lines, Example 4; format: cell-based; settings: day 14
Protocol: as §6

[6] = system: synovial sarcoma cell lines (SYO1, Yamato, HS-SY-II, and ASKA); test: Growth of synovial sarcoma cell lines (IncuCyte confluency, crystal violet, colony imaging), Example 3; format: cell-based
Protocol: as §2, §3, §4, §5

[7] = target: Nanoluciferase-BRD9 fusion protein (3×FLAG-NLuc-BRD9) in SYO-1 cells (Homo sapiens (Human), UniProt Q9H8M2); test: SYO1 BRD9 NanoLuc degradation assay; format: cell-based; settings: SYO-1 cells, 6 hours, Table 6A
Sequence of Nanoluciferase-BRD9 fusion protein (3×FLAG-NLuc-BRD9) in SYO-1 cells (Q9H8M2 whole entry, the tested form may be a part): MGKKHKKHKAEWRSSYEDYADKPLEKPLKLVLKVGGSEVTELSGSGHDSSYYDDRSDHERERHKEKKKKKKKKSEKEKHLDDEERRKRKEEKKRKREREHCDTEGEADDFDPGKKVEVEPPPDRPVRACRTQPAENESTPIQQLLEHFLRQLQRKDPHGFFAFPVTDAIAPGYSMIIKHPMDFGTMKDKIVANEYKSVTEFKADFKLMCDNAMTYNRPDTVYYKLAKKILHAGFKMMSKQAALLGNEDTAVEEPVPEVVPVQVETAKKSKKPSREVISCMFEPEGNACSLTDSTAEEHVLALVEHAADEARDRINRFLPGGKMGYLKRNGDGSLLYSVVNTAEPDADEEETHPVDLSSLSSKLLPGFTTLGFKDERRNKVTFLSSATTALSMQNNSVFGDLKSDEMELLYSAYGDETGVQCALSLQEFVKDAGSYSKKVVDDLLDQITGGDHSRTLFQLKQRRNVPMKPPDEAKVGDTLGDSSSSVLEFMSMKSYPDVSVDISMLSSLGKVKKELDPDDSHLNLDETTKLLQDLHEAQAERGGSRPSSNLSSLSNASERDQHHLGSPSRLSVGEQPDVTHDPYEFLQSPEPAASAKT
How it was run: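 Stable SYO-1 line expressing 3×FLAG-NLuc-BRD9, treated with 10-point 3-fold dilutions (top 1 μM final) for 6 hours. Nanoluciferase luminescence read with Nano-Glo reagent. % inhibition relative to DMSO (high control) and 1 μM reference BRD9 degrader (low control).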

BRD9 bromodomain = BRD9 bromodomain (Homo sapiens (Human), UniProt Q9H8M2); test: BRD9 bromodomain TR-FRET competition binding assay
Sequence of BRD9 bromodomain (Q9H8M2 133-239): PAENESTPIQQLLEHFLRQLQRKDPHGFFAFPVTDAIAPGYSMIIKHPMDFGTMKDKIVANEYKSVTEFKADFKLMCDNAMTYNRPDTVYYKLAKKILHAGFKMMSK

Question: Which results are given for `COc1cc(-c2cn(C)c(=O)c3cnccc23)cc(OC)c1CN(C)CC(=O)NCCOCCOCCNc1cccc2c1C(=O)N(C1CCC(=O)NC1=O)C2=O` (centres unmarked) [Compound 1]?
Answer: numbers of early- and late-apoptotic cells (SYO1 cells [1]): increased numbers of early- and late-apoptotic cells; inhibition of the growth of the cells [2]: does not result in inhibition of the growth; numbers of cells in the S-phase of the cell cycle (SYO1 cells [3]): reduced numbers of cells in the S-phase; growth inhibition compared with the other treatments ([4]; all synovial cell lines): most significant growth inhibition; inhibition of the growth of the cells [4]: inhibition of the growth of the cells; inhibition of the growth of the cells [5]: did not result in inhibition of the growth; inhibition of the growth of the cells [6]: inhibition of the growth of the cells

Question: For `COc1cc(-c2cn(C)c(=O)c3cnccc23)cc(OC)c1CN(C)C` [Compound 2], which “inhibition of the growth of the cells” value [2] is on record?
Answer: does not result in inhibition of the growth

Question: What about the “inhibition of the growth of the cells” value [4] of the same compound?
Answer: inhibition of the growth of the cells

Question: What about the “inhibition of the growth of the cells” value [5] of the same compound?
Answer: did not result in inhibition of the growth

Question: And the “inhibition of the growth of the cells” value [6]?
Answer: inhibition of the growth of the cells

Question: What does the source list for `COc1cc(-c2cn(C)c(=O)c3c2CCN(C(=O)NCCOCCNc2cccc4c2C(=O)N(C2CCC(=O)NC2=O)C4=O)C3)c(OC)cc1CN(C)C` (centres unmarked) [Compound D14, 5-[4-[(dimethylamino)methyl]-2,5-dimethoxyphenyl]-N-[2-(2-[[2-(2,6-dioxopiperidin-3-yl)-1,3-dioxoisoindol-4-yl]amino]ethoxy)ethyl]-7-methyl-8-oxo-3,4-dihydro-1H-2,7-naphthyridine-2-carboxamide formic acid]?
Answer: IC50 [7]: > 100 nM; IC50 (BRD9 bromodomain): > 10 nM

Question: What does the source list for `COc1cc(-c2cn(C)c(=O)c3c2CCN(C(=O)NCCCCCCCCNc2cccc4c2CN(C2CCC(=O)NC2=O)C4=O)C3)cc(OC)c1CN(C)C` (centres unmarked) [Compound D29, 5-(4-((dimethylamino)methyl)-3,5-dimethoxyphenyl)-N-(8-((2-(2,6-dioxopiperidin-3-yl)-1-oxoisoindolin-4-yl)amino)octyl)-7-methyl-8-oxo-3,4,7,8-tetrahydro-2,7-naphthyridine-2 (1H)-carboxamide formic acid]?
Answer: IC50 [7]: < 10 nM; IC50 (BRD9 bromodomain): < 10 nM

Question: `CNC(=O)N1CCc2c(c(-c3cc(OC)c(CN(C)CC(=O)NCCOCCOc4cccc5c4C(=O)N(C4CCC(=O)NC4=O)C5=O)c(OC)c3)cn(C)c2=O)C1` (centres unmarked) [Compound D24, 8-(4-(((2-((2-(2-((2-(2,6-dioxopiperidin-3-yl)-1,3-dioxoisoindolin-4-yl)oxy)ethoxy)ethyl)amino)-2-oxoethyl)(methyl)amino)methyl)-3,5-dimethoxyphenyl)-N,6-dimethyl-5-oxo-3,4,5,6-tetrahydro-2,6-naphthyridine-2 (1H)-carboxamide] was tested. Which IC50 [7] did it give?
Answer: > 1000 nM

Question: And the IC50 (BRD9 bromodomain)?
Answer: > 100 nM
